Assay results published in US12344610B2, “APOL1 inhibitors and methods of use” (Maze Therapeutics, Inc., priority 2022, dated 2025).

What was measured:
APOL1 G2 = target: T1, APOL1 G2 (Homo sapiens, UniProt O14791, DEL388-389); assay: APOL1-mediated calcium transport (calcium influx) assay, HEK T-REx/GCaMP6f/APOL1 G2 K6.3 cells, FLIPR TETRA; assay type: cell-based; conditions: prevention of calcium influx; geometric mean of at least 2 assay runs; † = average of a technical replicate from a single assay run
T1 construct: expressed in transfected cells; host or cells: HEK293 T-REx clonal line stably expressing GCaMP6f (HEK T-REx/GCaMP6f/APOL1 G2 K6.3), doxycycline induced
T1 sequence (O14791 with tags, fused parts or gaps DEL388-389): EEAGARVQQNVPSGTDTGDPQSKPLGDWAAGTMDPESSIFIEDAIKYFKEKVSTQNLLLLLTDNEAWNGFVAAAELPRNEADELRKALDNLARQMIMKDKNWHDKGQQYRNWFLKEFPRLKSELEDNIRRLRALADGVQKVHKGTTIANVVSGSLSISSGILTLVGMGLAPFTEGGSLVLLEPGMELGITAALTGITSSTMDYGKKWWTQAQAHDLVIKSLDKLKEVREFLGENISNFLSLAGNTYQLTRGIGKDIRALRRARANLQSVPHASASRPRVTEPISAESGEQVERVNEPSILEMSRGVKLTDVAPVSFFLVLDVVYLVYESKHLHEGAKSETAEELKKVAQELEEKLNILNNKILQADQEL
Procedure, shortened: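 A HEK293 T-REx clone stably expressing GCaMP6f had APOL1 G2 induced with doxycycline (20 ng/mL solution added) for 6 h. Cells were then washed into Ca2+-free Tyrode's buffer (pH 7.4) and preincubated with compounds (duplicate 8-point) for 10 min at room temperature. Ca2+ injection to 5 mM final produced FLIPR GCaMP fluorescence, giving AC50 for influx inhibition (geometric mean, ≥2 runs).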

[1] = tested on: HEK293 cells overexpressing APOL1 G2; assay: APOL1 G2 HEK293 cell rescue assay (reversal of cell death caused by overexpression of APOL1); assay type: cell-based; conditions: Homo sapiens, HEK293, HEK293 overexpressing APOL1 G2; geometric mean of at least 2 assay runs; † = single assay run
Procedure, shortened: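 EC50 is the half-maximal effective concentration for reversing cell death driven by APOL1 G2 overexpression in HEK293 cells. Reported as geometric mean of at least 2 runs on separate days, each run averaging duplicate wells per plate; some values from a single run.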

Structure (SMILES)	AC50 (APOL1 G2) [nM]	EC50 [1] [nM]
CS(=O)(=O)C1(c2ccc(OCCN3CCC4(CC3)C(=O)Nc3ccc(Cl)cc34)cc2)CC2(COC2)C1 [Compound 182, 5-chloro-1′-[2-(4-{6-methanesulfonyl-2-oxaspiro[3.3]heptan-6-yl}phenoxy)ethyl]-1,2-dihydrospiro[indole-3,4′-piperidin]-2-one]	574	99.6
CS(=O)(=O)C1(c2ccc(OCCN3CCC4(CC3)C(=O)N(CC(F)(F)F)c3ccc(C#N)cc34)cc2)COC1 [Compound 184, 1′-{2-[4-(3-methanesulfonyloxetan-3-yl)phenoxy]ethyl}-2-oxo-1-(2,2,2-trifluoroethyl)-1,2-dihydrospiro[indole-3,4′-piperidine]-5-carbonitrile]	1280	498
CS(=O)(=O)C1(c2ccc(OCCN3CCC4(CC3)C(=O)N(CC(F)(F)F)c3ccc(Cl)cc34)cc2)COC1 [Compound 185, 5-chloro-1′-{2-[4-(3-methanesulfonyloxetan-3-yl)phenoxy]ethyl}-1-(2,2,2-trifluoroethyl)-1,2-dihydrospiro[indole-3,4′-piperidin]-2-one]	993	113
CS(=O)(=O)C1(c2ccc(OCCN3CCC4(CC3)C(=O)Nc3ccc(Cl)cc34)cc2)CCOCC1 [Compound 188, 5-chloro-1′-{2-[4-(4-methanesulfonyloxan-4-yl)phenoxy]ethyl}-1,2-dihydrospiro[indole-3,4′-piperidin]-2-one]	513	39.2
CN1C(=O)C2(CCN(CCOc3cc(F)c(C4(S(C)(=O)=O)COC4)c(F)c3)CC2)c2cc(C#N)ccc21 [Compound 189, 1′-{2-[3,5-difluoro-4-(3-methanesulfonyloxetan-3-yl)phenoxy]ethyl}-1-methyl-2-oxo-1,2-dihydrospiro[indole-3,4′-piperidine]-5-carbonitrile]	349	59.1
CC(C)(c1ccc(OCCN2CCC3(CC2)C(=O)Nc2ccc(C#N)cc23)cn1)S(C)(=O)=O [Compound 191, 1′-(2-{[6-(2-methanesulfonylpropan-2-yl)pyridin-3-yl]oxy}ethyl)-2-oxo-1,2-dihydrospiro[indole-3,4′-piperidine]-5-carbonitrile]	1170	130
